According to US20090111801A1, “SUBSTITUTED PYRAZINONE DERIVATIVES FOR USE AS A MEDICINE” (Janssen Pharmaceutica N.V., priority 2006, published 2009):

Experiments:
5HT-Transporter = target: T1, 5HT-Transporter (Homo sapiens, UniProt P31645); assay: Binding experiment for the 5HT-transporter ([3H]paroxetine, human platelet membranes); conditions: [3H]paroxetine 0.5 nM; for IC50: read-out: h-5HTT pIC50 (converted)
T1 construct: Human platelet membranes (Oceanix Biosciences Corporation, Hanover, Md., USA) were thawed; tissue Oceanix Biosciences Corporation, Hanover, Md., USA; host or cells: human platelet membranes
Procedure, shortened: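 Filter-bound radioactivity from human platelet membranes incubated with [3H]paroxetine and test compound (buffer Tris-HCl 50 mM, 120 mM NaCl, 5 mM KCl) was counted.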

hα2A receptor = target: T2, hα2A receptor (Homo sapiens, UniProt P08913); assay: Radioligand binding experiment for α2A-adrenoceptor ([3H]raulwolscine, CHO cell membranes); conditions: [3H]raulwolscine binding; for IC50: read-out: h-α2A pIC50 (converted)
T2 construct: expressed in transfected cells; host or cells: CHO cells, stably transfected; membrane preparation
T2 sequence (P08913 1-465): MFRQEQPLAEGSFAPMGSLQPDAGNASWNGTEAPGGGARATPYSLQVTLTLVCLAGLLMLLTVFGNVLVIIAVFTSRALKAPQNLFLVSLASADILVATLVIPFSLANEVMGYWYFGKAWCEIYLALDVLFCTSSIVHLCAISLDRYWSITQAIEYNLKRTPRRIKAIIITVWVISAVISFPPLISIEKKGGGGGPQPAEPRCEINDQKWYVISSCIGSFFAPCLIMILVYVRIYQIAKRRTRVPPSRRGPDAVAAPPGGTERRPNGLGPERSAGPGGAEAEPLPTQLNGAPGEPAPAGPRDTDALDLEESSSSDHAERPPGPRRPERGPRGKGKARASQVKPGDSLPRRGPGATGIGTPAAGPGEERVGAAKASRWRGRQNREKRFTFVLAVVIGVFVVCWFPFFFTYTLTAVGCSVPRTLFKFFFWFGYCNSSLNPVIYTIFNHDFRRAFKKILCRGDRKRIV

hα2C receptor = target: T3, hα2C receptor (Homo sapiens, UniProt P18825); assay: Radioligand binding experiment for α2C-adrenoceptor ([3H]raulwolscine, CHO cell membranes); conditions: [3H]raulwolscine binding; for IC50: read-out: h-α2C pIC50 (converted)
T3 construct: expressed in transfected cells; host or cells: CHO cells, stably transfected; membrane preparation
T3 sequence (P18825 1-462): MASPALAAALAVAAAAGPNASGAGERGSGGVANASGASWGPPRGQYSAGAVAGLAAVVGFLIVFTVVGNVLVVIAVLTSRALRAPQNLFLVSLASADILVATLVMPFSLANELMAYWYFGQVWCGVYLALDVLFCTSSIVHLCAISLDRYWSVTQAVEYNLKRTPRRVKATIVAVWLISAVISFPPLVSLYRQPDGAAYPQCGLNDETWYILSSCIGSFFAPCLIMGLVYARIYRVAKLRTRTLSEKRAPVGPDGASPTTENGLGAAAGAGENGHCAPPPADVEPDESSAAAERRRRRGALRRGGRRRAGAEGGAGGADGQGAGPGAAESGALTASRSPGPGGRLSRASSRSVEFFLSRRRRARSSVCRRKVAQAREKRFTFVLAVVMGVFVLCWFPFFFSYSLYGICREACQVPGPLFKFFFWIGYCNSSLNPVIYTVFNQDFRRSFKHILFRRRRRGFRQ

T1 sequence (P31645 whole entry): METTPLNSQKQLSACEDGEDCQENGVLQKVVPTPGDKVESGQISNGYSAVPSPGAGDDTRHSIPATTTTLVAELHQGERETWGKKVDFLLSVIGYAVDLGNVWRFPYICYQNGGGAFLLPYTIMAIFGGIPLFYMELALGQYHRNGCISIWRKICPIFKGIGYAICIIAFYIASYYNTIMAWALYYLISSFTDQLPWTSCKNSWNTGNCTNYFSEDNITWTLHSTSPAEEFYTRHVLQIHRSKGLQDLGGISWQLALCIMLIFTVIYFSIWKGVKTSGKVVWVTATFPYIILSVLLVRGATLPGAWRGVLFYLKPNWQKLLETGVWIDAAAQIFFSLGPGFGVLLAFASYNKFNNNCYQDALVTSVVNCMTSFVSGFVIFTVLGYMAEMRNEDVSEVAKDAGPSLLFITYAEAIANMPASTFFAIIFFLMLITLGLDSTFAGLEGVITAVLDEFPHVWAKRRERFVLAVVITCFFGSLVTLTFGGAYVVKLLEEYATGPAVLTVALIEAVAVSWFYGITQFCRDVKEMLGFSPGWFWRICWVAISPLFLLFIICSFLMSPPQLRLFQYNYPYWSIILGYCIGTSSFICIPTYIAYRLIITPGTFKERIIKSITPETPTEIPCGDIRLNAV

Structure (SMILES)	IC50 (5HT-Transporter) [nM]	IC50 (hα2A receptor) [nM]	IC50 (hα2C receptor) [nM]	h-5HTT pIC50 (5HT-Transporter)	h-α2A pIC50 (hα2A receptor)	h-α2C pIC50 (hα2C receptor)
C/C(=C\c1ccccc1)CN1CCC(Nc2nccn(CC(=O)NCC3CCCO3)c2=O)CC1 (stereo not drawn) [1-144]	3160	158	6.31	–	–	–
C/C(=C\c1ccccc1)CN1CCC(Nc2nccn(-c3cccc(CNCC4CCCO4)c3)c2=O)CC1 (stereo not drawn) [1-145]	794	20	1.26	–	–	–
C/C(=C\c1ccccc1)CN1CCC(Nc2nccn(-c3ccc(CNCC4CCCO4)cc3)c2=O)CC1 (stereo not drawn) [1-146]	–	–	–	6.3	7.0	8.6
C/C(=C\c1ccccc1)CN1CCC(Nc2nccn(CC(=O)NCc3ccco3)c2=O)CC1 [1-147]	3160	50.1	3.16	–	–	–
C/C(=C\c1ccccc1)CN1CCC(Nc2nccn(CC(=O)NCCN3CCOCC3)c2=O)CC1 [1-148]	1260	251	7.94	–	–	–
C/C(=C\c1ccccc1)CN1CCC(Nc2nccn(-c3cccc(CNCCN4CCOCC4)c3)c2=O)CC1 [1-149]	–	–	–	5.5	7.6	8.4
C/C(=C\c1ccccc1)CN1CCC(Nc2nccn(-c3ccc(CNCCN4CCOCC4)cc3)c2=O)CC1 [1-150]	794	100	3.98	–	–	–
C/C(=C\c1ccccc1)CN1CCC(Nc2nccn(CC(=O)N(CCN3CCOCC3)Cc3ccc(F)cc3)c2=O)CC1 [1-151]	1260	126	2	–	–	–
C/C(=C\c1ccccc1)CN1CCC(Nc2nccn(-c3ccc(CNC(=O)c4ccno4)cc3)c2=O)CC1 [1-153]	–	–	–	6.1	6.9	8.9
C/C(=C\c1ccccc1)CN1CCC(Nc2nccn(Cc3ccc(CNC(=O)c4ccncc4)cc3)c2=O)CC1 [1-154]	398	126	39.8	–	–	–
C/C(=C\c1ccccc1)CN1CCC(Nc2nccn(CCCNS(C)(=O)=O)c2=O)CC1 [1-155]	1260	200	20	–	–	–
C/C(=C\c1ccccc1)CN1CCC(Nc2nccn(Cc3ccc(CNS(C)(=O)=O)cc3)c2=O)CC1 [1-156]	1260	158	31.6	–	–	–
CCCCS(=O)(=O)NCc1ccc(Cn2ccnc(NC3CCN(C/C(C)=C/c4ccccc4)CC3)c2=O)cc1 [1-157]	1000	251	50.1	–	–	–
C/C(=C\c1ccccc1)CN1CCC(Nc2nccn(CCCNS(=O)(=O)c3ccccc3)c2=O)CC1 [1-158]	158	100	6.31	–	–	–
C/C(=C\c1ccccc1)CN1CCC(Nc2nccn(CCCN(C)S(=O)(=O)c3ccccc3)c2=O)CC1 [1-160]	501	158	12.6	–	–	–
C/C(=C\c1ccccc1)CN1CCC(Nc2nccn(Cc3ccc(CNS(=O)(=O)c4ccc(C#N)cc4)cc3)c2=O)CC1 [1-161]	501	100	25.1	–	–	–
C/C(=C\c1ccccc1)CN1CCC(Nc2nccn(Cc3ccc(CNS(=O)(=O)c4ccc(F)cc4)cc3)c2=O)CC1 [1-162]	316	100	20	–	–	–
C/C(=C\c1ccccc1)CN1CCC(Nc2nccn(Cc3ccc(CNS(=O)(=O)c4ccc(C(F)(F)F)cc4)cc3)c2=O)CC1 [1-163]	794	158	39.8	–	–	–
CC(=O)Nc1ccc(S(=O)(=O)NCc2ccc(Cn3ccnc(NC4CCN(C/C(C)=C/c5ccccc5)CC4)c3=O)cc2)cc1 [1-164]	501	158	20	–	–	–
C/C(=C\c1ccccc1)CN1CCC(Nc2nccn(-c3cccc(NS(=O)(=O)Cc4ccccc4)c3)c2=O)CC1 [1-166]	316	63.1	12.6	–	–	–
C/C(=C\c1ccccc1)CN1CCC(Nc2nccn(Cc3ccc(CNS(=O)(=O)/C=C/c4ccccc4)cc3)c2=O)CC1 [1-167]	631	200	39.8	–	–	–
C/C(=C\c1ccccc1)CN1CCC(Nc2nccn(CCCN(c3ccccc3)S(=O)(=O)c3ccccc3)c2=O)CC1 [1-168]	200	158	10	–	–	–
C/C(=C\c1ccccc1)CN1CCC(Nc2nccn(CCCN(Cc3ccccc3)S(C)(=O)=O)c2=O)CC1 [1-169]	316	200	10	–	–	–
C/C(=C\c1ccccc1)CN1CCC(Nc2nccn(CCCN(Cc3ccccc3)S(=O)(=O)c3ccccc3)c2=O)CC1 [1-170]	251	200	12.6	–	–	–
C/C(=C\c1ccccc1)CN1CCC(Nc2nccn(Cc3ccc(CNS(=O)(=O)c4c(C)noc4C)cc3)c2=O)CC1 [1-171]	794	158	20	–	–	–

Results, then the compound that gave them:

IC50 (5HT-Transporter) [nM]	IC50 (hα2A receptor) [nM]	IC50 (hα2C receptor) [nM]	h-5HTT pIC50 (5HT-Transporter)	h-α2A pIC50 (hα2A receptor)	h-α2C pIC50 (hα2C receptor)	Structure (SMILES)
1260	31.6	39.8	–	–	–	C/C(=C\c1ccccc1)CN1CCC(Nc2nccn(CC(=O)c3ccc(N4CCCC4)cc3)c2=O)CC1 [2-1]
398	63.1	5.01	–	–	–	C/C(=C\c1ccccc1)CN1CCC(Nc2nccn(-c3ccc(C(=O)N4CCC(N(C)C)C4)cc3)c2=O)CC1 (stereo not drawn) [2-2]
3160	63.1	6.31	–	–	–	C/C(=C\c1ccccc1)CN1CCC(Nc2nccn(CCN3CCCCC3)c2=O)CC1 [2-3]
316	3.98	2.51	–	–	–	C/C(=C\c1ccccc1)CN1CCC(Nc2nccn(-c3cccc(N4CCCCC4)c3)c2=O)CC1 [2-6]
1260	50.1	5.01	–	–	–	C/C(=C\c1ccccc1)CN1CCC(Nc2nccn(-c3ccc(N4CCCCC4)cc3)c2=O)CC1 [2-7]
501	39.8	10	–	–	–	C/C(=C\c1ccccc1)CN1CCC(Nc2nccn(-c3ccc(N4CCCCC4)cc3)c2=O)CC1 [2-8]
200	0.631	0.2	–	–	–	C/C(=C\c1ccccc1)CN1CCC(Nc2nccn(-c3cccc(CN4CCCCC4)c3)c2=O)CC1 [2-9]
251	31.6	1.58	–	–	–	C/C(=C\c1ccccc1)CN1CCC(Nc2nccn(-c3ccc(CN4CCCCC4)cc3)c2=O)CC1 [2-10]
501	63.1	6.31	–	–	–	C/C(=C\c1ccccc1)CN1CCC(Nc2nccn(-c3ccc(C(=O)N4CCC(C)CC4)cc3)c2=O)CC1 [2-11]
2000	63.1	3.98	–	–	–	C/C(=C\c1ccccc1)CN1CCC(Nc2nccn(CC(=O)N3CCC(C(F)(F)F)CC3)c2=O)CC1 [2-12]
251	100	5.01	–	–	–	C/C(=C\c1ccccc1)CN1CCC(Nc2nccn(CC(=O)N3CCC(Cc4ccccc4)CC3)c2=O)CC1 [2-13]
5010	126	7.94	–	–	–	C/C(=C\c1ccccc1)CN1CCC(Nc2nccn(CC(=O)N3CCC(O)(c4ccccc4)CC3)c2=O)CC1 [2-14]
3980	126	3.98	–	–	–	COC(=O)C1CCN(C(=O)Cn2ccnc(NC3CCN(C/C(C)=C/c4ccccc4)CC3)c2=O)CC1 [2-15]
501	50.1	5.01	–	–	–	COC(=O)C1CCN(C(=O)c2ccc(-n3ccnc(NC4CCN(C/C(C)=C/c5ccccc5)CC4)c3=O)cc2)CC1 [2-16]
2000	25.1	1.58	–	–	–	C/C(=C\c1ccccc1)CN1CCC(Nc2nccn(CC(=O)N3CCC(N4CCCC4)CC3)c2=O)CC1 [2-17]
